Measured values published in patent publication US10676446B2, “Bicyclic quinazolinone derivatives” (Hoffmann-La Roche Inc., priority 2015, dated 2020).
pIC50: −log10 of the molar value.

Molecular target: human ATX (autotaxin, ENPP2), His-tagged (Homo sapiens (Human), UniProt Q13822)
Experiment: Human ATX enzyme inhibition assay (fluorescence quenching, MR121 substrate)
Type: biochemical
Settings: 30 nM ATX, 1 μM MR121 substrate, 30° C., pH 8.0
Method: Human ATX Enzyme Inhibition Assay
ATX inhibition was measured by a fluorescence quenching assay using a specifically labeled substrate analogue (MR121 substrate). To obtain this MR121 substrate, BOC and TBS protected 6-amino-hexanoic acid (R)-3-({2-[3-(2-{2-[2-(2-amino-ethoxy)-ethoxy]-ethoxy}-ethoxy)-propionylamino]-ethoxy}-hydroxy-phosphoryloxy)-2-hydroxy-propyl ester (Ferguson et al., Org. Lett. 2006, 8, 2023) was labeled with MR121 fluorophore [CAS RN 185308-24-1], 1-(3-carboxypropyl)-11-ethyl-1,2,3,4,8,9,10,11-octahydro-dipyrido[3,2-b:2′,3′-i]phenoxazin-13-ium) on the free amine of the ethanolamine side and then, after deprotection, subsequently with tryptophan on the side of the aminohexanoic acid.
Assay working solutions were made as follows:
Assay buffer (50 mM Tris-HCl, 140 mM NaCl, 5 mM KCl, 1 mM CaCl2, 1 mM MgCl2, 0.01% Triton-X-100, pH 8.0;
ATX solution: ATX (human His-tagged) stock solution (1.08 mg/mL in 20 mM bicine, pH 8.5, 0.15 M NaCl, 10% glycerol, 0.3% CHAPS, 0.02% NaN3), diluted to 1.4-2.5× final concentration in assay buffer;
MR121 substrate solution: MR121 substrate stock solution (800 μM MR121 substrate in DMSO), diluted to 2-5× final concentration in assay buffer.
Test compounds (10 mM stock in DMSO, 8 μL) were obtained in 384 well sample plates (Corning Costar #3655) and diluted with 8 μL DMSO. Row-wise serial dilutions were made by transferring 8 μL cpd solution to the next row up to row O. The compound and control solutions were mixed five times and 2 μL were transferred to 384 well assay plates (Corning Costar #3702). Then, 15 μL of 41.7 nM ATX solution was added (30 nM final concentration), mixed five times and then incubated for 15 minutes at 30° C. 10 μL of MR121 substrate solution was added (1 μM final concentration), mixed 30 times and then incubated for 15 minutes at 30° C.

| Structure (SMILES) | pIC50 |
| --- | --- |
| CN(Cc1ccc(Cl)c(Cl)c1)C(=O)Cn1cnc2ccc(N3CCN(S(=O)(=O)C4CC4)CC3)cc2c1=O [Example 91] | 7.52 |
| CC(C)[C@@H](O)C(=O)N1CCC(c2ccc3ncn(CC(=O)N(C)Cc4ccc(C#N)c(Cl)c4)c(=O)c3c2)CC1 [Example 157] | 8.00 |
| CN(Cc1ccc(Cl)c(Cl)c1)C(=O)Cn1cnc2ccc(N3CCN(C(=O)C4CC(Cl)C4)CC3)cc2c1=O (stereo not shown) [Example 77] | 8.52 |
| COCCC(=O)N1CCC(c2ccc3ncn(CC(=O)N(C)Cc4ccc(C#N)c(Cl)c4)c(=O)c3c2)CC1 [Example 134] | 9.00 |
| O=C(Cn1cnc2ccc(N3CCN(S(=O)(=O)C4CCCC4)CC3)cc2c1=O)NCc1ccc(Cl)c(Cl)c1 [Example 89] | 7.70 |
| CC(=O)N1CCN(c2ccc3ncn(CC(=O)NCc4cc(-c5ccc(Cl)cc5)no4)c(=O)c3c2)CC1 [Example 50] | 6.34 |
| Cc1noc(C)c1NC(=O)N1CCN(c2ccc3ncn(CC(=O)NCc4ccc(Cl)c(Cl)c4)c(=O)c3c2)CC1 [Example 86] | 6.88 |
| CC(C)NC(=O)N1CCN(c2ccc3ncn(CC(=O)NCc4ccc(Cl)c(Cl)c4)c(=O)c3c2)CC1 [Example 82, 4-[3-[2-[(3,4-Dichlorophenyl)methylamino]-2-oxoethyl]-4-oxoquinazolin-6-yl]-N-propan-2-ylpiperazine-1-carboxamide] | 7.37 |
| CC(=O)N1CCN(c2ccc3ncn(CC(=O)N(C)Cc4ccc(Cl)cc4)c(=O)c3c2)CC1 [Example 43] | 6.95 |
| CC(=O)N1CCC(c2ccc3ncn(CC(=O)NCc4ccc(C(F)(F)F)cc4)c(=O)c3c2)CC1 [Example 123] | 7.17 |
| O=C(Cn1cnc2ccc(N3CCN(C(=O)C(F)(F)F)CC3)cc2c1=O)NCc1ccc(Cl)c(Cl)c1 [Example 62] | 7.96 |
| CN(Cc1ccc(C#N)c(Cl)c1)C(=O)Cn1cnc2ccc(C3CCN(S(C)(=O)=O)CC3)cc2c1=O [Example 145, N-[(3-Chloro-4-cyanophenyl)methyl]-N-methyl-2-[6-(1-methylsulfonylpiperidin-4-yl)-4-oxoquinazolin-3-yl]acetamide] | 7.09 |
| C[C@@H](O)C(=O)N1CCC(c2ccc3ncn(CC(=O)N(C)Cc4ccc(C#N)c(Cl)c4)c(=O)c3c2)CC1 [Example 156] | 6.25 |
| CC(=O)N1CCN(c2ccc3ncn(C4(C(=O)NCc5ccc(Cl)c(Cl)c5)CC4)c(=O)c3c2)CC1 [Example 150, 1-[6-(4-Acetylpiperazin-1-yl)-4-oxoquinazolin-3-yl]-N-[(3,4-dichlorophenyl)methyl]cyclopropane-1-carboxamide] | 7.04 |
| CC(=O)N1CCC(O)(c2ccc3ncn(CC(=O)N(C)Cc4ccc(Cl)c(Cl)c4)c(=O)c3c2)CC1 [Example 184, 2-[6-(1-Acetyl-4-hydroxypiperidin-4-yl)-4-oxoquinazolin-3-yl]-N-[(3,4-dichlorophenyl)methyl]-N-methylacetamide] | 7.07 |
| CC(=O)N1CCN(c2ccc3ncn(CC(=O)NCc4ccc(C#N)c(Cl)c4)c(=O)c3c2)CC1 [Example 25] | 7.80 |
| CC(=O)N1CCN(c2ccc3ncn(CC(=O)NCc4ccc(C(F)(F)F)cc4)c(=O)c3c2)CC1 [Example 17] | 6.86 |
| CCCCC(=O)N1CCN(c2ccc3ncn(CC(=O)NCc4ccc(Cl)c(Cl)c4)c(=O)c3c2)CC1 [Example 60] | 8.00 |
| CC(=O)N1CCC(c2ccc3ncn(CC(=O)NCc4ccc(Cl)c(C(F)(F)F)c4)c(=O)c3c2)CC1 [Example 163] | 9.00 |
| CC(=O)N1CCN(c2ccc3ncn(CC(=O)NCc4ccc(OC(F)(F)F)cc4)c(=O)c3c2)CC1 [Example 20] | 8.30 |
| CN(Cc1ccc(Cl)c(Cl)c1)C(=O)Cn1cnc2ccc(C3CCN(C(=O)C(C)(C)O)CC3)cc2c1=O [Example 172] | 7.68 |
| CC(=O)N1CCN(c2ccc3ncn(CC(=O)N(C)Cc4ccc(Cl)c(Cl)c4)c(=O)c3c2)CC1 [Example 44] | 7.77 |
